For 28 compounds, IC50 results are on record in BindingDB's records for patent US20250034165 (Chia Tai Tianqing Pharmaceutical Group, 2025).

The structures appear in SMILES notation.

Assay [1] deals with Epidermal growth factor receptor (Homo sapiens, UniProt P00533). Description: Inhibitory Activity for EGFR (WT) Kinase. How it is done: A 50 ng/μL EGFR (WT, Carna) stock solution was diluted with a kinase buffer (50 mM HEPES, 10 mM MgCl2, 2 mM DTT, 1 mM EGTA, 0.01% Tween 20), and 6 μL of 1.67× working solution at 0.005 ng/μL (final concentration: 0.003 ng/μL) was added to each well. Different compounds dissolved in DMSO were added to the wells using a nanoliter pipettor, resulting in the final concentrations of the compounds of 100 nM to 0.0244 nM (4-fold gradient for 7 concentrations in total), and blank control wells (without enzyme) and negative control wells (with enzyme, plus vehicle DMSO) were set, 2 replicate wells for each concentration. After enzyme was reacted with the compound or vehicle for 30 min, 5×ATP at 25 μM (final concentration: 5 μM, Sigma) prepared with a kinase buffer was mixed with 5× substrate at 0.5 μM (final concentration: 0.1 μM, ULight-poly GT, PerkinElmer) at a ratio of 1:1 (v:v), and the mixture was added to each well at 4 μL/well. After being sealed with a film, the plate was incubated at room temperature for 2 h, and then 5 μL of 4×EDTA at 40 mM (final concentration: 10 mM) was added to each well. After the plate was incubated for 5 min at room temperature, 5 μL of 4× detection reagent at 8 nM (final concentration: 2 nM, Eu-anti-phospho-tyrosine antibody, PerkinElmer) was added to each well.
Sequence of Epidermal growth factor receptor (P00533 whole entry): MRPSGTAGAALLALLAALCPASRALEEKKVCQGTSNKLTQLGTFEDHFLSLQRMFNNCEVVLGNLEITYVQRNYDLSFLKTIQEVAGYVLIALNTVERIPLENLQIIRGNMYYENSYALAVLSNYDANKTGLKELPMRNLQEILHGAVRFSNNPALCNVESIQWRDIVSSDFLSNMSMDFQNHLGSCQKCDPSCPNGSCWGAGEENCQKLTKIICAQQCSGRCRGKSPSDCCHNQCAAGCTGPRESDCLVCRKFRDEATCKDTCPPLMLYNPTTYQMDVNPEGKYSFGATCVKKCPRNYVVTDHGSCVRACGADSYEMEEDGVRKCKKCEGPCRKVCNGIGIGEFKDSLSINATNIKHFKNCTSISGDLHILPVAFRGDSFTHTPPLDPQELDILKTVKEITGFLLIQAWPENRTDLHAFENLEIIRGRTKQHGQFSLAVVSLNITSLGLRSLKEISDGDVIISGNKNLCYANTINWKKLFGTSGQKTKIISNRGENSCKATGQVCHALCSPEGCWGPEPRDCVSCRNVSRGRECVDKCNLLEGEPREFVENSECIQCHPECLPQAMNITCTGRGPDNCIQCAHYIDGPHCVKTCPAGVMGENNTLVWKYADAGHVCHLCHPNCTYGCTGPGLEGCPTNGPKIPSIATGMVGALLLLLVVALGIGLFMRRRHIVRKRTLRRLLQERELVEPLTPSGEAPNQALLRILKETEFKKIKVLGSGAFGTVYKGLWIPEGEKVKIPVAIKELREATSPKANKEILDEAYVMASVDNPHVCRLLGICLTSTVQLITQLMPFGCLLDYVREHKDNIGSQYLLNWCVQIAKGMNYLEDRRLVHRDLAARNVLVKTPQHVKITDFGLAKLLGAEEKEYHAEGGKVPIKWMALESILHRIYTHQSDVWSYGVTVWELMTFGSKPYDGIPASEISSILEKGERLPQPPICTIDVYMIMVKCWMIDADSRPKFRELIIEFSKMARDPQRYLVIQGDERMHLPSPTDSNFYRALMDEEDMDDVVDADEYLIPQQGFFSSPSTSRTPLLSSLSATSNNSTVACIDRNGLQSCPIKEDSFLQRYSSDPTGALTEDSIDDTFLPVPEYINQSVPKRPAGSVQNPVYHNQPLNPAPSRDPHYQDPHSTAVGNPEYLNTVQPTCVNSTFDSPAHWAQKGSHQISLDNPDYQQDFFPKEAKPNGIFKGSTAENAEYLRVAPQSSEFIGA

The target in assay [2] is Epidermal growth factor receptor [T790M,C797S,L858R] (UniProt P00533, C797S/L858R/T790M). Description: Inhibitory Activity for EGFR (L858R/T790M/C797S) Kinase. How it is done: (§1) A 50 ng/μL EGFR (L858R/T790M/C797S, BPS) stock solution was diluted with a kinase buffer (50 mM HEPES, 10 mM MgCl2, 2 mM DTT, 1 mM EGTA, 0.01% Tween 20), and 6 μL of 1.67× working solution at 0.00167 ng/μL (final concentration: 0.001 ng/μL) was added to each well. Different compounds dissolved in DMSO were added to wells using a nanoliter pipettor, resulting in the final concentrations of the compounds of 10 nM to 0.0024 nM (4-fold gradient, 7 concentrations in total), and blank control wells (without enzyme) and negative control wells (with enzyme, plus vehicle DMSO) were set, 2 replicate wells for each concentration. After enzyme was reacted with the compound or vehicle for 30 min, 5×ATP at 25 μM (final concentration: 5 μM, Sigma) prepared with a kinase buffer was mixed with 5× substrate at 0.5 μM (final concentration: 0.1 μM, ULight-poly GT, PerkinElmer) at a ratio of 1:1 (v:v), and the mixture was added to each well at 4 μL/well. After being sealed with a film, the plate was incubated at room temperature for 2 h, and then 5 μL of 4×EDTA at 40 mM (final concentration: 10 mM) was added to each well. After the plate was incubated for 5 min at room temperature, 5 μL of 4× detection reagent at 8 nM (final concentration: 2 nM, Eu-anti-phospho-tyrosine antibody, PerkinElmer) was added to each well. After being incubated at room temperature for 1 h, the plate was read using a PerkinElmer Envision multi-mode microplate reader (excitation: 320 nm, emission: 665 nm), and IC50 was calculated by four-parameter fitting.
Sequence of Epidermal growth factor receptor [T790M,C797S,L858R] (P00533 25-1210 T790M/C797S/L858R limits assumed): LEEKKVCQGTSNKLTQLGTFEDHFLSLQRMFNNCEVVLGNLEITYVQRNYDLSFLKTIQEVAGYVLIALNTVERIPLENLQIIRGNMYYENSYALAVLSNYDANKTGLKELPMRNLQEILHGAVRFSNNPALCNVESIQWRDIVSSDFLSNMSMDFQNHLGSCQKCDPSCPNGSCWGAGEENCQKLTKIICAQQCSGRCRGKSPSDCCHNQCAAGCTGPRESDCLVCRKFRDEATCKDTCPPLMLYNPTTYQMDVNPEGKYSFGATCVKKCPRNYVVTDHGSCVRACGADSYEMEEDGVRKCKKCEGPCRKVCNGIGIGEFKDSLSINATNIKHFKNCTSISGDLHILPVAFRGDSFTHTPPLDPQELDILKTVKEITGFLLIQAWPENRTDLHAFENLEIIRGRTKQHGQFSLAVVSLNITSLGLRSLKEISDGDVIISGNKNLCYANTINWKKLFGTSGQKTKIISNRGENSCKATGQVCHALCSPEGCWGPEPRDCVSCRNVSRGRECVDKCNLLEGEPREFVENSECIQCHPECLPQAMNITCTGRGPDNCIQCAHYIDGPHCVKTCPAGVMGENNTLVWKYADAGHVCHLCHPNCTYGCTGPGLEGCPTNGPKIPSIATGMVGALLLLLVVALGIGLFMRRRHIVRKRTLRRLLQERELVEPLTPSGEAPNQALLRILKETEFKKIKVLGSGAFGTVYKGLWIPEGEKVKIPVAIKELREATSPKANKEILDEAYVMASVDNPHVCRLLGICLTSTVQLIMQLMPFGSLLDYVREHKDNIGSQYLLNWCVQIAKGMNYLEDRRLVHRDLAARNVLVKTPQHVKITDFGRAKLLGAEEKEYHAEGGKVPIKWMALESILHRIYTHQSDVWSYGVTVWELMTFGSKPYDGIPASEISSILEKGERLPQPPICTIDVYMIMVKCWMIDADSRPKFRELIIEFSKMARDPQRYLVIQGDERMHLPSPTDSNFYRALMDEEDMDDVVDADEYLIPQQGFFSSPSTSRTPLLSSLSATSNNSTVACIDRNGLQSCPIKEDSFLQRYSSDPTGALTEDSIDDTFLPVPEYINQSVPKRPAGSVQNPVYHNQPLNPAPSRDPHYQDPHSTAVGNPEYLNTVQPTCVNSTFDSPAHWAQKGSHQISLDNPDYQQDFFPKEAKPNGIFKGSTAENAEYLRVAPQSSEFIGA

Assay [3] deals with Epidermal growth factor receptor (EGFR)(L858R)(T790M) (Homo sapiens, UniProt P00533, L858R/T790M). Kind of assay: Inhibitory Activity for EGFR (L858R/T790M) Kinase. How it is done:
as §1, with “(L858R/T790M, Carna)” for “(L858R/T790M/C797S, BPS)”, “0.004175” for “0.00167”, “0.0025” for “0.001”

Sequence of Epidermal growth factor receptor (EGFR)(L858R)(T790M) (P00533 25-1210 T790M/L858R limits assumed): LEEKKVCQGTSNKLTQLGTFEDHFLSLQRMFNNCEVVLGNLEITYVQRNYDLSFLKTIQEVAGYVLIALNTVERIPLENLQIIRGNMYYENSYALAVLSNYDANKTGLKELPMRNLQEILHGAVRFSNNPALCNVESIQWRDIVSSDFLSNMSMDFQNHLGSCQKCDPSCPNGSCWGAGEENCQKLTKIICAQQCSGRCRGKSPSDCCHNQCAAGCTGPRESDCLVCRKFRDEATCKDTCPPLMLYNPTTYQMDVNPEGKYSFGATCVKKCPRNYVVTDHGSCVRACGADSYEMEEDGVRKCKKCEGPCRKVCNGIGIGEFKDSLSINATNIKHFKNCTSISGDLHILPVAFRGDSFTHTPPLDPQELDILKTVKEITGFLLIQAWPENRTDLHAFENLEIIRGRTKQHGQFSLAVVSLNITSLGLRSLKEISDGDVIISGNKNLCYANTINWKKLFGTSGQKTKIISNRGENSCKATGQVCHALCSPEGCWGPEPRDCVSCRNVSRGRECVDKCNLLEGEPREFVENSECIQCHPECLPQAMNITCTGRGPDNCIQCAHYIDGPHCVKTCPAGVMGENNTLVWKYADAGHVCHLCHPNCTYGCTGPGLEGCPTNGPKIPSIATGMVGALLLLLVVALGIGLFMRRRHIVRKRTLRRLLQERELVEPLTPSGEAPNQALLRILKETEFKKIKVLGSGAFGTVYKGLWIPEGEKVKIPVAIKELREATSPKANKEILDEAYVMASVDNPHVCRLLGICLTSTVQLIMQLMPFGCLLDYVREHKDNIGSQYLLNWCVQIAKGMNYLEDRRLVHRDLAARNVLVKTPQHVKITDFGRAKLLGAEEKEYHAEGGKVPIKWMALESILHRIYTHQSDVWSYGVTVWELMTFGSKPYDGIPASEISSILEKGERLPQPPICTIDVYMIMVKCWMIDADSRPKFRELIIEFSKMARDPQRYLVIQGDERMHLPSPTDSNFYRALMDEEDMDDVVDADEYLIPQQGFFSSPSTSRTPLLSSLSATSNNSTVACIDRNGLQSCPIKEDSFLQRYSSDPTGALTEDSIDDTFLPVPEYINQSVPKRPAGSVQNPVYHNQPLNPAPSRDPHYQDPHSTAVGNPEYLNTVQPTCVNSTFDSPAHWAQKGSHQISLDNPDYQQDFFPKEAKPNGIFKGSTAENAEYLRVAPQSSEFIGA

A word on the IC50: it is the midpoint of a concentration-inhibition curve. Low values mean higher potency, high ones lower potency. As for `Cc1cc2cc(n1)-c1cnn(C)c1OCCC[C@@H](C1CC1)CN1/C(=N/C2=O)Nc2cc(NCCN3CCOCC3)ccc21` [US20250034165, Example 3], the concentration for half-maximal inhibition (IC50) in assay [1] amounted to 0.864 nM; in assay [2], 0.022 nM.
Consider `Cc1cc2cc(n1)-c1cnn(C3CC3)c1OCCC[C@@H](C)CN1/C(=N/C2=O)Nc2cc(NCCN3CCOCC3)ccc21` [US20250034165, Example 5], for which the figures for the IC50 in assay [3] and in assay [1] were 0.091 nM and 3.1 nM, respectively.
With `Cc1cc2cc(n1)-c1cnn(C)c1OCCC[C@@H](C1CC1)CN1/C(=N/C2=O)Nc2cc(NC3CCN(C)CC3)ccc21` [US20250034165, Example 10], the IC50 turned out to be 0.02 nM in assay [3], 0.12 nM in assay [1] and 0.019 nM in assay [2].
Take `Cc1cc2cc(n1)-c1cnn(C)c1OCCC[C@@H](C1CC1)CN1/C(=N/C2=O)Nc2ccc(OCCN(C)C)cc21` [US20250034165, Example 11]: the 50% inhibitory concentration (IC50) in assay [3] was 0.044 nM; in assay [1] it was 1.9 nM; in assay [2] it was 0.055 nM.
For `Cc1cc2cc(n1)-c1cnn(C3CC3)c1OCCC[C@@H](C)CN1/C(=N/C2=O)Nc2cc(NC3CCN(C)CC3)ccc21` [US20250034165, Example 12], the IC50 is 0.19 nM in assay [3], 2.6 nM in assay [1] and 0.2 nM in assay [2].
Take `Cc1cc2cc(n1)-c1cnn(C3CC3)c1OCCC[C@@H](C)CN1/C(=N/C2=O)Nc2cc(N[C@@H]3CCOC3)ccc21` [US20250034165, Example 13]: the IC50 came to 0.088 nM in assay [3], 2 nM in assay [1] and 0.095 nM in assay [2].
Take `Cc1cc2cc(n1)-c1cnn(C3CC3)c1OCCC[C@@H](C)CN1/C(=N/C2=O)Nc2cc(NC[C@H]3COCCO3)ccc21` [US20250034165, Example 14]: the IC50 in assay [3] was 0.11 nM; in assay [1], 4 nM.
With `Cc1cc2cc(n1)-c1cnn(C3CC3)c1OCCC[C@@H](C)CN1/C(=N/C2=O)Nc2ccc(N3CC[C@H](O)C3)cc21` [US20250034165, Example 16], the figures for the IC50 in assay [1] and in assay [2] were 3.4 nM and 0.12 nM, respectively.
Regarding `Cc1cc2cc(n1)-c1cnn(C3CC3)c1OCCC[C@@H](C)CN1/C(=N/C2=O)Nc2ccc(NCCN(C)C)cc21` [US20250034165, Example 17], the IC50 in assay [3] came out at 0.011 nM; in assay [1], 0.7 nM; in assay [2] it was 0.008 nM.
As for `Cc1cc2cc(n1)-c1cnn(C)c1OCCC[C@@H](C1CC1)CN1/C(=N/C2=O)Nc2cc(N[C@@H]3CCCOC3)ccc21` [US20250034165, Example 18], the results for the IC50 in assay [1] and in assay [2] were 1.7 nM and 0.051 nM, respectively.
On to `Cc1cc2cc(n1)-c1cnn(C)c1OCCC[C@@H](C1CC1)CN1/C(=N/C2=O)Nc2cc(NC[C@H]3COCCO3)ccc21` [US20250034165, Example 19], for which the IC50 in assay [1] was 1.8 nM; in assay [2], 0.035 nM.
On to `Cc1cc2cc(n1)-c1cnn(C)c1OCCC[C@@H](C1CC1)CN1/C(=N/C2=O)Nc2ccc(NC3CCN(C)CC3)cc21` [US20250034165, Example 20], for which the 50% inhibitory concentration (IC50) in assay [3] came out at 0.016 nM; in assay [1] it was 0.2 nM.
With `Cc1cc2cc(n1)-c1cnn(C)c1OCCC[C@@H](C1CC1)CN1/C(=N/C2=O)Nc2ccc(N3CC[C@H](O)C3)cc21` [US20250034165, Example 21], the IC50 in assay [1] turned out to be 2.4 nM; in assay [2] it was 0.075 nM.
Turning to `Cc1cc2cc(n1)-c1cnn(C)c1OCCC[C@@H](C1CC1)CN1/C(=N/C2=O)Nc2cc(NCC3CCOCC3)ccc21` [US20250034165, Example 22], the IC50 in assay [3] was determined as 0.04 nM; in assay [1], 2 nM; in assay [2] it was 0.052 nM.
Consider `Cc1cc2cc(n1)-c1cnn(C)c1OCCC[C@@H](C1CC1)CN1/C(=N/C2=O)Nc2ccc(NCCCN(C)C)cc21` [US20250034165, Example 27], for which the 50% inhibitory concentration (IC50) was 0.03 nM in assay [3], 0.78 nM in assay [1] and 0.033 nM in assay [2].
`Cc1cc2cc(n1)-c1cnn(C)c1OCCC[C@@H](C1CC1)CN1/C(=N/C2=O)Nc2ccc(NCCN(C)C)cc21` [US20250034165, Example 28] yielded a 50% inhibitory concentration (IC50) in assay [1] of 0.45 nM.
For the compound `Cc1cc2cc(n1)-c1cnn(C)c1OCCC[C@@H](C1CC1)CN1/C(=N/C2=O)Nc2cc(NC3(C)COC3)ccc21` [US20250034165, Example 29], the concentration for half-maximal inhibition (IC50) in assay [3] came to 0.019 nM; in assay [1], 1.4 nM; in assay [2] it was 0.021 nM.
Turning to `Cc1cc2cc(n1)-c1cnn(C)c1OCCC[C@@H](C1CC1)CN1/C(=N/C2=O)Nc2cc(NC3CN(C)C3)ccc21` [US20250034165, Example 33], the results for the concentration for half-maximal inhibition (IC50) in assay [1] and in assay [2] were 0.47 nM and 0.012 nM, respectively.
As for `Cc1cc2cc(n1)-c1cnn(C)c1OCCC[C@@H](C1CC1)CN1/C(=N/C2=O)Nc2cc(NC3(C)CNC3)ccc21` [US20250034165, Example 34], the values for the IC50 in assay [1] and in assay [2] were 0.4 nM and 0.028 nM, respectively.
The like results for `Cc1cc2cc(n1)-c1cnn(C)c1OCCC[C@@H](C1CC1)CN1/C(=N/C2=O)Nc2cc(N[C@@H]3CCOC3)ccc21` [US20250034165, Example 43] were, in that order, 1.2 nM and 0.039 nM.
Consider `Cc1cc2cc(n1)-c1cnn(C)c1OCCC[C@@H](C1CC1)CN1/C(=N/C2=O)Nc2cc(NC3CCN(C(C)C)CC3)ccc21` [US20250034165, Example 47], for which the IC50 is 0.023 nM in assay [3] and 0.55 nM in assay [1].
Consider `Cc1cc2cc(n1)-c1cnn(C)c1OCCC[C@@H](C1CC1)CN1/C(=N/C2=O)Nc2cc(NCCCN)ccc21` [US20250034165, Example 50], for which the half-maximal inhibitory concentration (IC50) in assay [1] came to 1.3 nM; in assay [2], 0.066 nM.
On to `Cc1cc2cc(n1)-c1cnn(C)c1OCCC[C@@H](C1CC1)CN1/C(=N/C2=O)Nc2cc(NCCCCN(C)C)ccc21` [US20250034165, Example 51], for which the figures for the IC50 in assay [3] and in assay [1] were 0.017 nM and 1.8 nM, respectively.
As to `Cc1cc2cc(n1)-c1cnn(C)c1OCCC[C@@H](C1CC1)CN1/C(=N/C2=O)Nc2ccc(NCCN)cc21` [US20250034165, Example 58], the half-maximal inhibitory concentration (IC50) in assay [3] is 0.012 nM; in assay [1], 0.51 nM.
Take `Cc1cc2cc(n1)-c1cnn(C)c1OCCC[C@@H](C1CC1)CN1/C(=N/C2=O)Nc2ccc(NC(C)CN(C)C)cc21` (stereo partly drawn) [US20250034165, Example 63]: the half-maximal inhibitory concentration (IC50) came to 0.009 nM in assay [3] and 0.33 nM in assay [1].
Consider `Cc1cc2cc(n1)-c1cnn(C)c1OCCC[C@@H](C1CC1)CN1/C(=N/C2=O)Nc2ccc(NCCN3CCCC3)cc21` [US20250034165, Example 82], for which the IC50 in assay [1] was determined as 0.58 nM; in assay [2] it was 0.014 nM.
Consider `Cc1cc2cc(n1)-c1cnn(C)c1OCCC[C@@H](C1CC1)CN1/C(=N/C2=O)Nc2ccc(NCCCN3CCCC3)cc21` [US20250034165, Example 84], for which the 50% inhibitory concentration (IC50) was determined as 0.1 nM in assay [3] and 1.2 nM in assay [1].
For the compound `Cc1cc2cc(n1)-c1cnn(C)c1OCCC[C@@H](C1CC1)CN1/C(=N/C2=O)Nc2cc(N[C@H]3CC[C@H](O)CC3)ccc21` [US20250034165, Example 151], the IC50 was determined as 0.23 nM in assay [3] and 0.25 nM in assay [2].
